# Laboratory results as given in paper PMC11600510 (Journal of Chemical Information and Modeling, 2024).
# Legend:
# [1] = target: T1, Spike RBD/ACE2 (19–615) interaction (Severe acute respiratory syndrome coronavirus 2, UniProt P0DTC2); assay: cell-based; type: cell-based, SARS-CoV-2
# T1 construct: S protein RBD (aa residues 319–541) of SARS-CoV-2; expressed in transfected cells; host or cells: HEK293T
# SARS-CoV-2 pseudovirus = assay: microbe, parasite or virus in culture; type: cell-based; conditions: Severe acute respiratory syndrome-related coronavirus, SH-SY5Y, read-out: IC50, inhibition of pseudovirus cell entry
# Vero E6 cells = assay: MTT toxicity assay in Vero E6 cells; type: cell-based; conditions: 48 h
# Experimental: Chemical compounds were dissolved and serially diluted in DMSO. Their cytotoxicity was assessed using an MTT assay. Briefly, HEK293T, SH-SY5Y or Vero E6 cells were cultured in 96-well plates (4 × 10^4 cells/well) at 37 °C in a 5% CO2 atmosphere. Cells were treated for 48 h with varying concentrations of the compounds (100–0.1 μM) or solvent. […] Treated cells were incubated for 4 h with […] MTT (Applichem). After incubation, the MTT-containing medium was removed and formazan crystals were dissolved in DMSO. The optical density (OD) of formazan solution at 570 and 630 nm was measured in a SPARK plate reader (Tecan).
# E. coli WP2 uvrA strain = assay: Microbial mutagenicity assay (Ames test); conditions: positive control
# SARS-CoV-2 [2] = assay: microbe, parasite or virus in culture; type: cell-based
# SARS-CoV-2 [3] = type: cell-based
# [4] = HEK-293T, 48 h, read-out: suppression of Spike RBD/ACE2 (19–615) interaction
smiles,measurement,setting,value
"O=[N+]([O-])c1cccc2c1ncn2Cc1ccc2cccnc2c1 [CKP-48, 7-((4-Nitro-1H-benzo[d]imidazol-1-yl)methyl)quinoline]",activity on Spike RBD/ACE2 (19–615) interaction (in words),[1],showed activity
same,inhibition at 50 µM,[1]; [4],36%
"O=c1c(Oc2ccc(-c3ccccc3)cc2)coc2cc(O)ccc12 [compound 6659989, 3-(4-biphenylyloxy)-7-hydroxy-4H-chromen-4-one]",concentration-dependent suppression of Spike RBD/ACE2 (19–615) interaction,[1],suppressed Spike RBD/ACE2 (19–615) interaction in a concentration-dependent manner
same,effect on Spike RBD/ACE2 (19–615) interaction,[1],suppressed the interaction
same,IC50,SARS-CoV-2 pseudovirus,3.2 ± 0.2 µM
"Cc1ccc[n+](CC(=O)c2ccc3c(c2)Cc2ccccc2-3)c1C.[Br-] [compound 5315079, 1-[2-(9H-fluoren-2-yl)-2-oxoethyl]-2,3-dimethylpyridinium bromide]",concentration-dependent suppression of Spike RBD/ACE2 (19–615) interaction,[1],suppressed Spike RBD/ACE2 (19–615) interaction in a concentration-dependent manner
same,effect on Spike RBD/ACE2 (19–615) interaction,[1],suppressed the interaction
"O=C(c1ccc(-c2ccccc2)cc1)n1cnc2ccccc21 [compound 5260662, 1-(4-biphenylylcarbonyl)-1H-benzimidazole]",concentration-dependent suppression of Spike RBD/ACE2 (19–615) interaction,[1],suppressed Spike RBD/ACE2 (19–615) interaction in a concentration-dependent manner
same,effect on Spike RBD/ACE2 (19–615) interaction,[1],suppressed the interaction
"Oc1ccc(Cn2cnc3ccccc32)cc1O [CKP-35, 4-((1H-Benzo[d]imidazol-1-yl)methyl)benzene-1,2-diol]",melting point,,188 to 190 °C (dec.)
"O=C1CC(c2ccc3ccccc3c2)c2ccc3ccccc3c2N1 (stereo not shown) [compound 5979742, 4-(2-naphthyl)-3,4-dihydrobenzo[h]quinolin-2(1H)-one]",effect on Spike RBD/ACE2 (19–615) interaction,[1],suppressed the interaction
"Clc1ccc(/C=C/C[n+]2cn(Cc3ccc4ccccc4c3)c3ccccc32)cc1.[Br-] [CKP-32, (E)-3-(3-(4-Chlorophenyl)allyl)-1-(naphthalen-2-ylmethyl)-1H-benzo[d]imidazol-3-ium Bromide]",inhibition at 10 µM,[1]; [4],70%
same,toxicity against Vero E6 cells,Vero E6 cells,toxic
same,melting point,,166 to 167 °C
"Oc1cccc2c1ncn2Cc1ccc2ccccc2c1 [CKP-26, 1-(Naphthalen-2-ylmethyl)-1H-benzo[d]imidazol-4-ol]",activity on Spike RBD/ACE2 (19–615) interaction (in words),[1],"none of the 4-hydroxy congeners of 28 and 29, compounds 31 (CKP-26) and 32 (CKP-30) maintained inhibitory activity"
O=[N+]([O-])c1ccc(/C=C/C[n+]2cn(Cc3ccc4ccccc4c3)c3ccccc32)cc1.[Br-],melting point,,189 to 191 °C
"O=C(O)c1ccc2c(c1)C(=O)N(c1ccc(-c3nnc(-c4ccccc4)o3)cc1)C2=O [compound 5733393, 1,3-dioxo-2-[4-(5-phenyl-1,3,4-oxadiazol-2-yl)phenyl]-5-isoindolinecarboxylic acid]",effect on Spike RBD/ACE2 (19–615) interaction,[1],suppressed the interaction
"Nc1ccc2cc3ccccc3cc2c1 [2-aminoanthracene, reference compound]",mean revertants,"E. coli WP2 uvrA strain; 10 μg/plate, +S9",>300
"c1ccc(-c2ccc(Cn3cnc4ccccc43)cc2)cc1 [CKP-23, 1-([1,1′-Biphenyl]-4-ylmethyl)-1H-benzo[d]imidazole]",melting point,,184 to 186 °C
"COc1cccc2c1ncn2Cc1ccc(-c2ccccc2)cc1 [CKP-27, 1-([1,1′-Biphenyl]-4-ylmethyl)-4-methoxy-1H-benzo[d]imidazole]",inhibition at 25 µM,[1]; [4],72%
same,effect on the cytopathic effect of SARS-CoV-2 (in words),SARS-CoV-2 [2],consistently reduced the cytopathic effect
same,effect on viral load in the cell culture supernatant (in words),SARS-CoV-2 [3],reduced the viral load
same,melting point,,150 to 151 °C
"O=C(c1ccc(NC(=O)C(c2ccccc2)c2ccccc2)cc1)c1ccc(C(=O)O)c(C(=O)O)c1 [compound 6048589, 4-{4-[(diphenylacetyl)amino]benzoyl}phthalic acid]",effect on Spike RBD/ACE2 (19–615) interaction,[1],suppressed the interaction
"c1ccc2cc(CCn3cnc4ccccc43)ccc2c1 [CKP-46, 1-(2-(Naphthalen-2-yl)ethyl)-1H-benzo[d]imidazole]",activity on Spike RBD/ACE2 (19–615) interaction (in words),[1],activity was retained
same,inhibition at 1 µM,[1]; [4],20%
"COS(C)(=O)=O [methyl methanesulfonate, reference compound]",mean revertants,"E. coli WP2 uvrA strain; 2.5 μL/plate, –S9",>300
"Oc1cccc2c1ncn2Cc1ccc(-c2ccccc2)cc1 [CKP-30, 1-([1,1′-Biphenyl]-4-ylmethyl)-1H-benzo[d]imidazol-4-ol]",activity on Spike RBD/ACE2 (19–615) interaction (in words),[1],"none of the 4-hydroxy congeners of 28 and 29, compounds 31 (CKP-26) and 32 (CKP-30) maintained inhibitory activity"
same,melting point,,258 to 259 °C
"COc1cccc2c1ncn2Cc1ccc2cccnc2c1 [CKP-44, 7-((4-Methoxy-1H-benzo[d]imidazol-1-yl)methyl)quinoline]",activity on Spike RBD/ACE2 (19–615) interaction (in words),[1],did not exhibit any effect
same,melting point,,161 to 162 °C
"c1ccc2cc(Cn3cnc4ccccc43)ccc2c1 [CKP-22, 1-(Naphthalen-2-ylmethyl)-1H-benzo[d]imidazole]",IC50,[1],55 µM
same,concentration-dependent suppression of Spike RBD/ACE2 (19–615) interaction,[1],suppressed Spike RBD/ACE2 (19–615) interaction in a concentration-dependent manner
same,effect on Spike RBD/ACE2 (19–615) interaction,[1],suppressed the interaction
same,inhibition at 50 µM,[1]; [4],81%
same,IC50,SARS-CoV-2 pseudovirus,49 ± 2.5 µM
same,prevention of infection from the original SARS-CoV-2 in vitro,SARS-CoV-2 [2],strongly prevented infection
same,reduction of the cytopathic effect (CPE) of the virus,SARS-CoV-2 [2],approximately 90%
same,reduction of SARS-CoV-2 levels (viral load) in cell culture supernatant,SARS-CoV-2 [3],68%
same,melting point,,139 to 140 °C
COc1ccc(Cn2c[n+](C/C=C/c3ccc([N+](=O)[O-])cc3)c3ccccc32)cc1OC.[Br-],melting point,,146 to 148 °C (dec.)
"COc1cccc2c1[n+](C/C=C/c1ccc([N+](=O)[O-])cc1)cn2Cc1ccc2ccccc2c1.[Br-] [CKP-42, (E)-4-Methoxy-1-(naphthalen-2-ylmethyl)-3-(3-(4-nitrophenyl)allyl)-1H-benzo[d]imidazol-3-ium Bromide]",activity on Spike RBD/ACE2 (19–615) interaction (in words),[1],active
same,inhibition at 10 µM,[1]; [4],74%
same,melting point,,227 to 228 °C
"O=C(C=Cc1ccc(NC(=O)c2ccccc2-c2ccccc2C(=O)O)cc1)c1ccccc1 [compound 5755483, 2'-({[4-(3-oxo-3-phenyl-1-propen-1-yl)phenyl]amino}carbonyl)-2-biphenylcarboxylic acid]",effect on Spike RBD/ACE2 (19–615) interaction,[1],suppressed the interaction
"c1cnc2cc(Cn3cnc4ccccc43)ccc2c1 [CKP-36, 7-((1H-Benzo[d]imidazol-1-yl)methyl)quinoline]",melting point,,166 to 168 °C (dec.)
O=[N+]([O-])c1ccc(/C=C/C[n+]2cn(Cc3ccc(-c4ccccc4)cc3)c3ccccc32)cc1.[Br-],melting point,,236 to 238 °C (dec.)
COc1cccc2c1[n+](C/C=C/c1ccc(Cl)cc1)cn2Cc1ccc(-c2ccccc2)cc1.[Br-],melting point,,205 to 206 °C
"Nc1nc(-c2ccccc2)c(-c2ccc(-c3ccccc3)cc2)s1 [compound 6954709, 5-(4-biphenylyl)-4-phenyl-1,3-thiazol-2-amine]",effect on Spike RBD/ACE2 (19–615) interaction,[1],suppressed the interaction
"Nc1cccc2c1ncn2Cc1ccc2cccnc2c1 [CKP-49, 1-(Quinolin-7-ylmethyl)-1H-benzo[d]imidazol-4-amine]",inhibition at 50 µM,[1]; [4],30%
same,effect on the cytopathic effect of SARS-CoV-2 (in words),SARS-CoV-2 [2],consistently reduced the cytopathic effect
same,effect on viral load in the cell culture supernatant (in words),SARS-CoV-2 [3],reduced the viral load
"O=C(O)c1ccccc1C(=O)Nc1ccc(Oc2ccc3ccccc3c2)cc1 [compound 6052953, 2-({[4-(2-naphthyloxy)phenyl]amino}carbonyl)benzoic acid]",concentration-dependent suppression of Spike RBD/ACE2 (19–615) interaction,[1],suppressed Spike RBD/ACE2 (19–615) interaction in a concentration-dependent manner
same,effect on Spike RBD/ACE2 (19–615) interaction,[1],suppressed the interaction
COc1cccc2c1[n+](C/C=C/c1ccc(Cl)cc1)cn2Cc1ccc2ccccc2c1.[Br-],melting point,,228 to 229 °C
"O=[N+]([O-])c1cccc2c1ncn2Cc1ccc2ccccc2c1 [CKP-20, 1-(Naphthalen-2-ylmethyl)-4-nitro-1H-benzo[d]imidazole]",activity on Spike RBD/ACE2 (19–615) interaction (in words),[1],showed activity
same,inhibition at 50 µM,[1]; [4],51%
"COc1ccc(Cn2cnc3ccccc32)cc1OC [CKP-24, 1-(3,4-Dimethoxybenzyl)-1H-benzo[d]imidazole]",melting point,,131 to 132 °C
"COc1cccc2c1[n+](C/C=C/c1ccc([N+](=O)[O-])cc1)cn2Cc1ccc(-c2ccccc2)cc1.[Br-] [CKP-40, (E)-1-([1,1′-Biphenyl]-4-ylmethyl)-4-methoxy-3-(3-(4-nitrophenyl)allyl)-1H-benzo[d]imidazol-3-ium Bromide]",activity on Spike RBD/ACE2 (19–615) interaction (in words),[1],active
same,inhibition at 25 µM,[1]; [4],14%
same,effect on the cytopathic effect of SARS-CoV-2 (in words),SARS-CoV-2 [2],not protective against SARS-CoV-2
same,melting point,,203 to 204 °C
"COc1ccc(-c2ccccc2)cc1NCc1ccc2c(c1)OCO2 [compound 5465521, (1,3-benzodioxol-5-ylmethyl)(4-methoxy-3-biphenylyl)amine]",concentration-dependent suppression of Spike RBD/ACE2 (19–615) interaction,[1],suppressed Spike RBD/ACE2 (19–615) interaction in a concentration-dependent manner
same,effect on Spike RBD/ACE2 (19–615) interaction,[1],suppressed the interaction
